Data taken from patent publication US20250082598A1, “Melafenoxate, 2-(1-adamantylamino)ethyl 2-(4-chlorophenoxy)acetate and derivatives thereof for treating circadian rhythm sleep disorders with neurodegenerative diseases such as Alzheimer's disease” (NLS Pharmaceutics AG, priority 2021, published 2025).
Entries after “also recorded” stand apart in the source; their conditions may differ.

How the values were obtained:
DAT (h) = biological target: T1, DAT (h) (Homo sapiens, UniProt Q01959); assay: Radioligand binding, DAT (h); settings: 10^−5 M; antagonist radioligand
T1 construct: Eurofins
T1 sequence (Q01959 whole entry): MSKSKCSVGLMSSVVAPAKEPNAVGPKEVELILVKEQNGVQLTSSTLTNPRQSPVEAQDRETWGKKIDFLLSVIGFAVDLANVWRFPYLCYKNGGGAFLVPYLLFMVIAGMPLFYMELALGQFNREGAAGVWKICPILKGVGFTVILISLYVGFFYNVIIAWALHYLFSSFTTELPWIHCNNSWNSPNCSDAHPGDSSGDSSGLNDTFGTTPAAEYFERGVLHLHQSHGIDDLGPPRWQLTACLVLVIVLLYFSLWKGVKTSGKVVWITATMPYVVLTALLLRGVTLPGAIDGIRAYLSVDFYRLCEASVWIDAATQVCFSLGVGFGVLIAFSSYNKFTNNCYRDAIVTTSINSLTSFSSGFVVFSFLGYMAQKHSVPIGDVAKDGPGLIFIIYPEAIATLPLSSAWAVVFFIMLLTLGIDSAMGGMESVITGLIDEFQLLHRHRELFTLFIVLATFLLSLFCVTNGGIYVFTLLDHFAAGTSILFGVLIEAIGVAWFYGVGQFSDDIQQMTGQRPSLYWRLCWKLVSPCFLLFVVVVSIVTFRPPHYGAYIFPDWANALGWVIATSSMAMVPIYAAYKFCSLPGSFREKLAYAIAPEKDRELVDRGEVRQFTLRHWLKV
Method: (§1) Melafenoxate was tested at 10^−5 M, calculated as a % inhibition of control specific binding of a radioactively labeled ligand specific for each target.
(§2) This binding profile panel was broadly defined with roughly an equal number of selective, central and peripheral therapeutically relevant targets, including native animal tissues, radioligands and specific enzymes involved in cell cycle regulation in accordance with Eurofins Standard Operating Procedure.
(§3) For radioligand binding experiments, the half maximal inhibitory concentration (IC50) and the half maximal effective concentration (EC50) values were determined (via computer software) by nonlinear regression analysis of the competition curves using Hill equation curve fitting. The inhibition constants (Ki) were calculated using the Cheng-Prusoff equation (Ki=IC50/(1+(L/KD)), where L is the concentration of radioligand in the assay, and KD is the affinity of the radioligand for the receptor.^49
(§4) The results are expressed as a % control specific binding ([measured specific binding/control specific binding]×100) and as a % inhibition of control specific binding (100−[(measured specific binding/control specific binding)×100]) obtained in the presence of the test compounds. […]

5-HT7 (h) = biological target: T2, 5-HT7 (h) (Homo sapiens, UniProt P34969); assay: Radioligand binding, 5-HT7 (h); settings: 10^−5 M; agonist radioligand
T2 construct: CEREP (Eurofins, France)
T2 sequence (P34969 whole entry): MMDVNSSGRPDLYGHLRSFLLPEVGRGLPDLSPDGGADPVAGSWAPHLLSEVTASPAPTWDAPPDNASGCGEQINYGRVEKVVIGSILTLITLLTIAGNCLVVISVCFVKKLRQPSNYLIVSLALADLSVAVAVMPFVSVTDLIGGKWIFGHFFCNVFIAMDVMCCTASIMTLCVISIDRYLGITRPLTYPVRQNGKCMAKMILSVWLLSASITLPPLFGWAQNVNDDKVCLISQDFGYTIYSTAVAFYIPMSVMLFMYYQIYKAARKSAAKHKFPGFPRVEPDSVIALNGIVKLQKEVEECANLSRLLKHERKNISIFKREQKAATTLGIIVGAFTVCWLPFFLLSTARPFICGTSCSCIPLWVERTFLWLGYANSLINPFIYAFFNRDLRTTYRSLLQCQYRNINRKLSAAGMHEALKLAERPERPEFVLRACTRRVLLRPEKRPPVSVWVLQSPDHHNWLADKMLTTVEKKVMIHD
Method: as §1, §2, §3, §4

C57BL/6J mice = assay: Spontaneous locomotor activity in open-field; format: in vivo; settings: 3.125, 6.25, 12.5, 25, 50 and 100 mg/kg
Method: Experiments were carried out on C57BL/6J mice.
The effects of NLS-8 (6 doses) on spontaneous locomotor activity were examined. For this purpose, animals received an injection of NLS-8 (3.125, 6.25, 12.5, 25, 50 and 100 mg/kg) or its vehicle (Control group) (N=6/group) and were placed in an open-field for a 90-min session.
Locomotor activity (distance travelled in the open-field during the first, second and third 30-min period following treatment) was automatically recorded.
Data analysis: between group comparisons of all groups vs. the Control group: unpaired Student's t test.

inhibition at 10 µM (DAT (h)): 20.9%
inhibition at 10 µM (5-HT7 (h)): 12.8%
Structure (SMILES): O=C(COc1ccc(Cl)cc1)OCCNC12CC3CC(CC(C3)C1)C2 [Melafenoxate, 2-(1-adamantylamino)ethyl 2-(4-chlorophenoxy)acetate]
distance travelled in the open-field (locomotor activity) vs. Control group (C57BL/6J mice; 90-min session, C57BL/6J mice, listed as NLS-8): did not significantly modify; also recorded: no significant
visible side effect (C57BL/6J mice; any dose tested): did not induce visible side effect
